The values that follow come from patent publication US20230227427A1, “IL-17A MODULATORS” (SANOFI, priority 2010, published 2023).

Each structure is given as a SMILES string.

In one experiment the target is T1, human recombinant IL-17A (Homo sapiens, UniProt Q16552).
T1 construct: purchased R&D Systems 7955-IL/CF
T1 sequence (Q16552 24-155): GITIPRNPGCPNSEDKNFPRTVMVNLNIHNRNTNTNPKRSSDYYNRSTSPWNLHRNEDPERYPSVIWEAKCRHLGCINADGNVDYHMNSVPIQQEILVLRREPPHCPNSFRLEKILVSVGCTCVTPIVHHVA
Kind of experiment: IL-17A AlphaLISA assay (block binding of IL-17A to its receptor IL-17RA). The following applies: compounds pre-incubated with the IL-17A for 30 min (indicated by * in Table A). In outline:
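Compounds pre-incubated 24 h at RT (30 min where flagged) with human IL-17A (7.5 nM stock) before IL-17RA/Fc (5 nM stock), 90 min. Read by AlphaLISA via anti-Fc acceptor and biotin anti-IL-17A/streptavidin donor beads, 680/615 nm. 4-parameter fit; DMSO and 6 μM reference inhibitor as controls; pIC50.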
On the technique in general: Bead proximity is the source of the signal in Alpha formats.
On to `Cc1nnn(C)c1-c1ccc(NC(=O)[C@@H](NC(=O)c2ccnn2C)[C@H]2CC[C@H](C)CC2)nc1` [Example 125, N—((S)-2-((5-(1,4-Dimethyl-1H-1,2,3-triazol-5-yl)pyridin-2-yl)amino)-1-((1r,4S)-4-methylcyclohexyl)-2-oxoethyl)-1-methyl-1H-pyrazole-5-carboxamide], for which the “AlphaLISA pIC50” value is listed as 6.8*.

Staying with this experiment, now noted: compounds pre-incubated with the IL-17A for 30 min (indicated by * in Table A); read-out: AlphaLISA pIC50 (converted).
On to `Cc1cc(=O)n(C)c(C)c1-c1ccc(NC(=O)[C@@H](NC(=O)c2ccnn2C)C2CCCCCC2)nc1` [Example 214, (S)—N-(1-cycloheptyl-2-oxo-2-((1′,2′,4′-trimethyl-6′-oxo-1′,6′-dihydro-[3,3′-bipyridin]-6-yl)amino)ethyl)-1-methyl-1H-pyrazole-5-carboxamide], for which the IC50 was 0.158 µM.

In the case of `Cc1cnn(C)c1-c1ccc(NC(=O)[C@@H](NC(=O)c2cnnn2C)C2CCCCCC2)nc1` [Example 133, (S)—N-(1-Cycloheptyl-2-((5-(1,4-dimethyl-1H-pyrazol-5-yl)pyridin-2-yl)amino)-2-oxoethyl)-1-methyl-1H-1,2,3-triazole-5-carboxamide], the IC50 was 0.251 µM.

Regarding `CCn1nccc1C(=O)N[C@H](C(=O)Nc1ccc(-c2c(C)noc2C)nc1)C1CCCCCC1` [Example 169, (S)—N-(1-cycloheptyl-2-((6-(3,5-dimethylisoxazol-4-yl)pyridin-3-yl)amino)-2-oxoethyl)-1-ethyl-1H-pyrazole-5-carboxamide], the IC50 was 0.1 µM.

Consider `CCc1nocc1C(=O)N[C@H](C(=O)Nc1ccc(-c2c(C)noc2C)cn1)C1CCCCCC1` [Example 124, (S)—N-(1-Cycloheptyl-2-((5-(3,5-dimethylisoxazol-4-yl)pyridin-2-yl)amino)-2-oxoethyl)-3-ethylisoxazole-4-carboxamide], for which the IC50 is 0.0398 µM.

Regarding `CCc1nocc1C(=O)N[C@H](C(=O)Nc1ccc(-c2c(C)cnn2C)cn1)C1CCC(F)(F)CC1` [Example 144, (S)—N-(1-(4,4-difluorocyclohexyl)-2-((5-(1,4-dimethyl-1H-pyrazol-5-yl)pyridin-2-yl)amino)-2-oxoethyl)-3-ethylisoxazole-4-carboxamide], the IC50 was 0.794 µM.

Turning to `CCc1nocc1C(=O)N[C@H](C(=O)Nc1ncc(-c2c(C)noc2C)cc1F)C1CCCCCC1` [Example 164, (S)—N-(1-cycloheptyl-2-((5-(3,5-dimethylisoxazol-4-yl)-3-fluoropyridin-2-yl)amino)-2-oxoethyl)-3-ethylisoxazole-4-carboxamide], the IC50 is 0.0631 µM.

Consider `Cc1nnn(CC(=O)N(C)C)c1-c1ccc(NC(=O)[C@@H](NC(=O)c2ccnn2C)C2CCCCCC2)nc1` [Example 190, (S)—N-(1-cycloheptyl-2-((5-(1-(2-(dimethylamino)-2-oxoethyl)-4-methyl-1H-1,2,3-triazol-5-yl)pyridin-2-yl)amino)-2-oxoethyl)-1-methyl-1H-pyrazole-5-carboxamide], for which the IC50 is 0.794 µM.

Regarding `Cc1nn(C)c(C)c1-c1ccc(NC(=O)[C@@H](NC(=O)c2ccnn2C)[C@H]2CC[C@H](C)CC2)nc1` [Example 217, 1-methyl-N—((S)-1-((1r,4S)-4-methylcyclohexyl)-2-oxo-2-((5-(1,3,5-trimethyl-1H-pyrazol-4-yl)pyridin-2-yl)amino)ethyl)-1H-pyrazole-5-carboxamide], the IC50 is 0.501 µM.

`CCc1nocc1C(=O)N[C@H](C(=O)Nc1ccc(-c2c(C)noc2C)cn1)[C@H]1CC[C@H](C)CC1` [Example 111, N—((S)-2-((5-(3,5-dimethylisoxazol-4-yl)pyridin-2-yl)amino)-1-((1r,4S)-4-methylcyclohexyl)-2-oxoethyl)-3-ethylisoxazole-4-carboxamide]: the IC50 was 0.0794 µM.

Turning to `Cc1n[nH]c(C)c1-c1ccc(NC(=O)[C@@H](NC(=O)c2ccnn2C)[C@H]2CC[C@H](C)CC2)nc1` [Example 99, N—((S)-2-((5-(3,5-Dimethyl-1H-pyrazol-4-yl)pyridin-2-yl)amino)-1-((1r,4S)-4-methylcyclohexyl)-2-oxoethyl)-1-methyl-1H-pyrazole-5-carboxamide], the IC50 is 0.2 µM.

In the case of `Cc1nn(C)c(C)c1-c1ccc(NC(=O)[C@@H](NC(=O)c2ccnn2C)C2CCCCCC2)nc1` [Example 216, (S)—N-(1-cycloheptyl-2-oxo-2-((5-(1,3,5-trimethyl-1H-pyrazol-4-yl)pyridin-2-yl)amino)ethyl)-1-methyl-1H-pyrazole-5-carboxamide], the IC50 is 0.501 µM.

Regarding `CCn1nccc1C(=O)N[C@H](C(=O)Nc1ccc(-c2c(C)c[n+]([O-])cc2C)cn1)[C@H]1CC[C@H](C)CC1` [Example 139, 6-((S)-2-(1-Ethyl-1H-pyrazole-5-carboxamido)-2-((1r,4S)-4-methylcyclohexyl)acetamido)-3′,5′-dimethyl-[3,4′-bipyridine]1′-oxide], the IC50 was 0.126 µM.

Regarding `CCn1nccc1C(=O)N[C@H](C(=O)Nc1cnc(-c2c(C)cnn2C)nc1)[C@H]1CC[C@H](C)CC1` [Example 147, N—((S)-2-((2-(1,4-dimethyl-1H-pyrazol-5-yl)pyrimidin-5-yl)amino)-1-((1r,4S)-4-methylcyclohexyl)-2-oxoethyl)-1-ethyl-1H-pyrazole-5-carboxamide], the IC50 is 0.398 µM.

As to `Cc1cnn(C)c1-c1ccc(NC(=O)[C@@H](NC(=O)c2ccnn2C(C)C)[C@H]2CC[C@H](C)CC2)cn1` [Example 204, N—((S)-2-((6-(1,4-dimethyl-1H-pyrazol-5-yl)pyridin-3-yl)amino)-1-((1r,4S)-4-methylcyclohexyl)-2-oxoethyl)-1-isopropyl-1H-pyrazole-5-carboxamide], the IC50 was 0.2 µM.

For the compound `Cc1cc(=O)n(C)c(C)c1-c1ccc(NC(=O)[C@@H](NC(=O)c2ccnn2C)[C@H]2CC[C@H](C)CC2)nc1` [Example 215, 1-methyl-N—((S)-1-((1r,4S)-4-methylcyclohexyl)-2-oxo-2-((1′,2′,4′-trimethyl-6′-oxo-1′,6′-dihydro-[3,3′-bipyridin]-6-yl)amino)ethyl)-1H-pyrazole-5-carboxamide], the IC50 is 0.126 µM.

Still in this experiment, the particulars now being: compounds pre-incubated with the IL-17A for 24 h at room temperature; read-out: AlphaLISA pIC50 (converted).
`Cc1cc(=O)n(C)cc1-c1ccc(NC(=O)[C@@H](NC(=O)c2ccnn2C)C(c2ccccc2)c2ccccc2)cc1` [Example 12, (S)—N-(1-((4-(1,4-dimethyl-6-oxo-1,6-dihydropyridin-3-yl)phenyl)amino)-1-oxo-3,3-diphenylpropan-2-yl)-1-methyl-1H-pyrazole-5-carboxamide]: the IC50 was 0.01 µM.

On to `Cn1nccc1C(=O)N[C@H](C(=O)Nc1ccc(-c2ccc(=O)[nH]n2)c(F)c1)C(c1ccccc1)c1ccccc1` [Example 58, (S)—N-(1-((3-fluoro-4-(6-oxo-1,6-dihydropyridazin-3-yl)phenyl)amino)-1-oxo-3,3-diphenylpropan-2-yl)-1-methyl-1H-pyrazole-5-carboxamide], for which the IC50 is 0.316 µM.

In the case of `COc1cnccc1-c1ccc(NC(=O)[C@@H](NC(=O)c2ccnn2C)C(c2ccc(F)cc2)c2ccc(F)cc2)cc1` [Example 19, (S)—N-(1,1-bis(4-fluorophenyl)-3-((4-(3-methoxypyridin-4-yl)phenyl)amino)-3-oxopropan-2-yl)-1-methyl-1H-pyrazole-5-carboxamide], the IC50 was 0.0631 µM.

For the compound `Cn1nccc1C(=O)N[C@H](C(=O)Nc1ccc(-c2cc(=O)[nH]cn2)c(F)c1)C(c1ccccc1)c1ccccc1` [Example 80, (S)—N-(1-((3-fluoro-4-(6-oxo-1,6-dihydropyrimidin-4-yl)phenyl)amino)-1-oxo-3,3-diphenylpropan-2-yl)-1-methyl-1H-pyrazole-5-carboxamide], the IC50 is 0.316 µM.

On to `Cc1cnccc1-c1ccc(NC(=O)[C@@H](NC(=O)c2ccnn2C)C(c2ccccc2)c2ccccc2)cc1` [Example 4, (S)-1-methyl-N-(1-((4-(3-methylpyridin-4-yl)phenyl)amino)-1-oxo-3,3-diphenylpropan-2-yl)-1H-pyrazole-5-carboxamide], for which the IC50 was 0.02 µM.

As for `Cc1ncc(C)c(-c2ccc(NC(=O)[C@@H](NC(=O)c3ccnn3C)C(c3ccccc3)c3ccccc3)cc2)n1` [Example 37, (S)—N-(1-((4-(2,5-dimethylpyrimidin-4-yl)phenyl)amino)-1-oxo-3,3-diphenylpropan-2-yl)-1-methyl-1H-pyrazole-5-carboxamide], the IC50 is 0.0398 µM.

For the compound `Cc1c(-c2ccc(NC(=O)[C@@H](NC(=O)c3ccnn3C)C(c3ccccc3)c3ccccc3)cc2C(F)(F)F)ccc(=O)n1C` [Example 54, (S)—N-(1-((4-(1,2-dimethyl-6-oxo-1,6-dihydropyridin-3-yl)-3-(trifluoromethyl)phenyl)amino)-1-oxo-3,3-diphenylpropan-2-yl)-1-methyl-1H-pyrazole-5-carboxamide], the IC50 is 0.316 µM.

Consider `COc1cnccc1-c1ccc(NC(=O)[C@@H](NC(=O)c2ccnn2C)C(c2ccccc2)c2ccccc2)c(F)c1` [Example 23, (S)—N-(1-((2-fluoro-4-(3-methoxypyridin-4-yl)phenyl)amino)-1-oxo-3,3-diphenylpropan-2-yl)-1-methyl-1H-pyrazole-5-carboxamide], for which the IC50 is 0.0398 µM.

On to `COc1cnccc1-c1ccc(NC(=O)[C@@H](NC(=O)c2ccnn2C)C(c2ccccc2)c2ccccc2)cc1F` [Example 24, (S)—N-(1-((3-fluoro-4-(3-methoxypyridin-4-yl)phenyl)amino)-1-oxo-3,3-diphenylpropan-2-yl)-1-methyl-1H-pyrazole-5-carboxamide], for which the IC50 is 0.0316 µM.

As to `Cc1c(-c2ccc(NC(=O)[C@@H](NC(=O)c3ccnn3C)C(c3ccccc3)c3ccccc3)cc2F)ccc(=O)n1C` [Example 16, (S)—N-(1-((4-(1,2-dimethyl-6-oxo-1,6-dihydropyridin-3-yl)-3-fluorophenyl)amino)-1-oxo-3,3-diphenylpropan-2-yl)-1-methyl-1H-pyrazole-5-carboxamide], the IC50 was 0.0158 µM.
